From patent US20220009980A1, “TP5, A PEPTIDE INHIBITOR OF ABERRANT AND HYPERACTIVE CDK5/P25 AS TREATMENT FOR CANCER” (The United States of America,as represented by the …, priority 2018, published 2022) come the findings set out here.

The subject of assay [1] is subcutaneous colorectal cancer. Kind of assay: Subcutaneous colorectal cancer mouse model. The conditions noted are these: FIG. 9. It is filed as in vivo. Here is the method:
The effect of TP5 administration alone or in combination with chemotherapy (Sn38; 7-ethyl-10-hydroxycamptothecin) in a subcutaneous colorectal cancer mouse model additionally was determined. TP5, Sn38, or TP5+Sn38 was administered to the mice and tumor volume and proliferation rate were investigated.

The test system of assay [2] is glioblastoma cell line U251. As to the kind of experiment: DNA damage measured by expression of pH2Ax in U251. The conditions noted are these: FIG. 4. It is filed as cell-based. The source says: Although not wishing to be bound by any particular theory, TP5 is believed to increase DNA damage in a dose-dependent manner and impair DNA repair by reducing G2 phase and decreasing the phosphorylation of ATM.

A further assay relates to glioblastoma colonies. Kind of assay: Number and viability of glioblastoma colonies. The class given is cell-based. The conditions noted are these: different amounts of TP5; FIG. 2. On the procedure:
(§1) The viability of glioblastoma cell line U251 following the administration of TP5 (SEQ ID NO: 1) was determined. TP5 scrambled (SEQ ID NO: 2) was used as a control.

The subject of assay [3] is colorectal cancer colonies. As to the kind of experiment: Number and viability of colorectal cancer colonies. The class given is cell-based. The conditions noted are these: different amounts of TP5; FIG. 7. On the procedure:
(§2) The viability of colorectal carcinoma cell line HT29 following the administration of TP5 (SEQ ID NO: 1) was determined. TP5 scrambled (SEQ ID NO: 2) was used as a control.

Assay [4] has as its system colorectal carcinoma cell line HT29. As to the kind of experiment: DNA damage measured by expression of pH2Ax in HT29. The conditions noted are these: FIG. 8. It is filed as cell-based.
The subject of assay [5] is glioblastoma cell line U251. Kind of assay: Early and late apoptosis in glioblastoma cell line U251. It is filed as cell-based. The conditions noted are these: FIG. 3. On the procedure: The extent of early and late apoptosis in glioblastoma cell line U251 also was determined.
In assay [6] the test system is colorectal carcinoma cell line HT29. Kind of assay: Viability of colorectal carcinoma cell line HT29. The class given is cell-based. The conditions noted are these: FIG. 6. On the procedure:
as §2

Assay [7] deals with glioblastoma cell line U251. As to the kind of experiment: Viability of glioblastoma cell line U251. The class given is cell-based. The conditions noted are these: FIG. 1. On the procedure: as §1
The next assay concerns orthotopic glioblastoma. As to the kind of experiment: Orthotopic glioblastoma mouse model. The conditions noted are these: for proliferation rate: 100 μM or 300 μM of TP5; for tumor volume: 100 μM or 300 μM of TP5, FIG. 5. It is filed as in vivo. On the procedure:
The effect of TP5 administration in an orthotopic glioblastoma mouse model additionally was determined. 100 μM or 300 μM of TP5 was administered to the mice and tumor volume and proliferation rate were investigated.

As for “TP5: P5, a small peptide that selectively inhibits aberrant and hyperactive CDK5/p25, modified to facilitate passage through blood brain barrier; SEQ ID NO: 1 (KEAFWDRCLSVINLMSSKMLQINAYARAARRAARR)”, the tumor volume entry is “decreased the tumor volume of the mice” in assay [1] and “decreases the tumor volume” in the assay with orthotopic glioblastoma. Moreover, the “DNA damage as measured by expression of pH2Ax” value is “increases DNA damage in glioblastoma cell line U251 in a dose-dependent manner” in assay [2] and “increases DNA damage in colorectal carcinoma cell line HT29 in a dose-dependent manner” in assay [4]. The “number and viability of glioblastoma colonies” value with glioblastoma colonies was “decreased the number and viability of glioblastoma colonies in a dose-dependent manner”. The “number and viability of colorectal cancer colonies” value in [3] was “decreased the number and viability of colorectal cancer colonies in a dose-dependent manner”. Moreover, the “early and late apoptosis” value in [5] was “increases the early and late apoptosis of glioblastoma cells”. The “viability of colorectal carcinoma cell line” value in assay [6] is “decreased the viability of glioblastoma cell line in a dose-dependent manner”. Also, the “viability of glioblastoma cell line” value in [7] is “decreased the viability of glioblastoma cell line in a dose-dependent manner”. Also, in the assay with orthotopic glioblastoma, the proliferation rate entry is “decreases the tumor volume and proliferation rate”.
In the case of “TP5 scrambled: scrambled TP5 peptide (SEQ ID NO: 2) used as a control (FWDRCLSGKMSSKGGGINAYARAARRAARR) [reference compound]”, in assay [7], the “viability of glioblastoma cell line” value is recorded as “but not TP5 scrambled decreased the viability of glioblastoma cell line”. In addition, in the assay with orthotopic glioblastoma, the proliferation rate result was “but not TP5 scrambled decreases the tumor volume and proliferation rate”; the tumor volume entry was “but not TP5 scrambled decreases the tumor volume”.
